Results as given in patent US20130123355A1, “Fatty acids and metal ions compositions and uses thereof” (priority 2011, published 2013).

Experiments:
human subjects = assay: Montreal Cognitive Assessment and Mini-Mental State Examination; format: in vivo
Description: (§1) Mg-DHA composition is prepared and formulated as capsules to provide a daily dose of 150 mg of elemental magnesium. The human subjects are divided into control and test groups and provided DHA, Mg Citrate (equivalent to 150 mg of elemental magnesium) or Mg-DHA capsules for 30 consecutive days. On day 1 and day 30, two cognitive tests, Montreal Cognitive Assessment and Mini-Mental State Examination (Int J Geriatr Psychiatry. 2010 February; 25(2):111-20) are administered.
as §1, with “Mg-DHA-LysoPC” for “Mg-DHA”, “either DHA-LysoPC,” for “DHA,”, “magnesium), Mg-DHA-LysoPC” for “magnesium) or Mg-DHA”
Mg-EPA composition is prepared and formulated as capsules to provide a daily dose of 150 mg of elemental magnesium. The human subjects are divided into control and test groups and provided EPA, Mg Citrate (equivalent to 150 mg elemental magnesium), or Mg-EPA capsules for 30 consecutive days. On day 1 and day 30, two cognitive tests, Montreal Cognitive Assessment and Mini-Mental State Examination (Int J Geriatr Psychiatry. 2010 February; 25(2):111-20) are administered.
as §1, with “Zn-DHA or zinc gluconate” for “Mg-DHA”, “30” for “a daily dose of 150”, “zinc.” for “magnesium.”, “zinc gluconate,” for “Mg Citrate (equivalent to 150 mg of elemental magnesium)”, “Zn-DHA capsules, 3 times a day” for “Mg-DHA capsules”
(§2) Zn-DHA or zinc gluconate composition is prepared and formulated as capsules to provide 30 mg of elemental zinc. The human subjects are divided into control and test groups and provided DHA-LysoPC, zinc gluconate, or Zn-DHA-LysoPC capsules, 3 times a day for 30 consecutive days. On day 1 and day 30, two cognitive tests, Montreal Cognitive Assessment and Mini-Mental State Examination (Int J Geriatr Psychiatry. 2010 February; 25(2):111-20) are administered.
as §2, with “provide a daily dosage of” for “provide”, “provided EPA,” for “provided DHA-LysoPC,”, “or Zn-EPA capsules” for “or Zn-DHA-LysoPC capsules, 3 times a day”

rats = assay: novel-object-location (NOL) tests; format: in vivo; settings: diet
Description: Mg-DHA composition is provided as supplement in standard rat feed. On an average, rats consume about 50 mg/Kg/day of elemental Mg, on a feeding schedule so as to maintain 85% of its free-feeding weight. In the control group, rats are fed either DHA or magnesium citrate (Mg Citrate) supplemented diet on schedule similar to test group. After habituation to the apparatus and pre-training, each rat undergoes 4 trials of standard T-maze test (Shoji et al, J. Vis. Exp. (60), e3300, DOI: 10.3791/3300 (2012)) on day 1 or day 21 of Mg-DHA, Mg Citrate, or DHA feeding. Rats are subject to either forced alternation task or left-right discrimination task. Behaviors in the T-maze apparatus is recorded and statistically analyzed by two way repeated measures analysis of variance. […] In another set of experiments, rats fed with DHA, Mg Citrate, or Mg-DHA for 21 days are subject to novel-object-location (NOL) tests.
Mg-DHA composition is provided as supplement in standard rat feed. On an average, rats consume about 50 mg/Kg/day of elemental Mg, on a feeding schedule so as to maintain 85% of its free-feeding weight. In the control group, rats are fed DHA-LysoPC or Mg Citrate supplemented diet on schedule similar to test group. After habituation to the apparatus and pre-training, each rat undergoes 4 trials of standard T-maze test (Shoji et al, J. Vis. Exp. (60), e3300, DOI: 10.3791/3300 (2012)) on day 1 or day 21 of Mg-DHA-LysoPC, Mg Citrate or DHA-LysoPC feeding. Rats are subjected to either forced alternation task or left-right discrimination task. Behaviors in the T-maze apparatus is recorded and statistically analyzed by two way repeated measures analysis of variance. […] In another set of experiments, rats fed with Mg Citrate, DHA-LysoPC, or Mg-DHA-LysoPC for 21 days are subjected to novel-object-location (NOL) tests.
Mg-EPA composition is provided as supplement in standard rat feed. On an average, rats consume about 50 mg/Kg/day of elemental Mg, on a feeding schedule so as to maintain 85% of its free-feeding weight. In the control group, rats are fed EPA or Mg Citrate supplemented diet on scheduled similar to test group. After habituation to the apparatus and pre-training, each rat undergoes 4 trials of standard T-maze test (Shoji et al, J. Vis. Exp. (60), e3300, DOI: 10.3791/3300 (2012)) on day 1 or day 21 of Mg-EPA, Mg Citrate, or EPA feeding. Rats are subjected to either forced alternation task or left-right discrimination task. Behaviors in the T-maze apparatus is recorded and statistically analyzed by two way repeated measures analysis of variance. […]
Zn-DHA composition is provided as supplement in standard rat feed. […] Behaviors in the T-maze apparatus is recorded and statistically analyzed by two way repeated measures analysis of variance. […]

[1] = capsules providing 30 mg elemental zinc, 30 consecutive days, compared with the fatty acid alone or zinc gluconate
[2] = about 1 mg/kg/day elemental Zn for 21 days, compared with the fatty acid alone or zinc gluconate
[3] = capsules, 150 mg elemental magnesium daily for 30 days, compared with the fatty acid alone or Mg Citrate
[4] = about 50 mg/Kg/day elemental Mg for 21 days, compared with the fatty acid alone or Mg Citrate

## CC/C=C\C/C=C\C/C=C\C/C=C\C/C=C\C/C=C\CCC(=O)[O-].CC/C=C\C/C=C\C/C=C\C/C=C\C/C=C\C/C=C\CCC(=O)[O-].[Zn+2] [Zn-DHA]
Human subjects; [1]
  cognitive tests (Montreal Cognitive Assessment, Mini-Mental State Examination): statistically significant improvement
rats; [2]
  ability to recognize novel objects: statistically significant improvement

## CC/C=C\C/C=C\C/C=C\C/C=C\C/C=C\C/C=C\CCC(=O)[O-].CC/C=C\C/C=C\C/C=C\C/C=C\C/C=C\C/C=C\CCC(=O)[O-].[Mg+2] [Mg-DHA]
Human subjects; [3]
  cognitive tests (Montreal Cognitive Assessment, Mini-Mental State Examination): statistically significant improvement
rats; [4]
  ability to recognize novel objects: statistically significant improvement

## CC/C=C\C/C=C\C/C=C\C/C=C\C/C=C\CCCC(=O)[O-].CC/C=C\C/C=C\C/C=C\C/C=C\C/C=C\CCCC(=O)[O-].[Zn+2] [Zn-EPA]
Human subjects; [1]
  cognitive tests (Montreal Cognitive Assessment, Mini-Mental State Examination): statistically significant improvement
rats; [2]
  ability to recognize novel objects: statistically significant improvement

## CC/C=C\C/C=C\C/C=C\C/C=C\C/C=C\CCCC(=O)[O-].CC/C=C\C/C=C\C/C=C\C/C=C\C/C=C\CCCC(=O)[O-].[Mg+2] [Mg-EPA]
Human subjects; [3]
  cognitive tests (Montreal Cognitive Assessment, Mini-Mental State Examination): statistically significant improvement
rats; [4]
  ability to recognize novel objects: statistically significant improvement
